Laboratory results taken from ChEMBL document CHEMBL5331061, “Design, synthesis, and biological evaluation of Wee1 kinase degraders” (Eur J Med Chem, 2022).
The source made the active and inactive calls. The rule behind the calls is not given here.

Key:
[1] = target: Serine/threonine-protein kinase PLK1 (Homo sapiens, UniProt P53350); assay: Inhibition of PLK1 (unknown origin)
[2] = test system: MV4-11; assay: Antiproliferative activity against human MV4-11 cells assessed as cell growth inhibition measured after 72 hrs by SRB Assay; conditions: MV4-11, 72 h
[3] = test system: SUM149PT; assay: Antiproliferative activity against human SUM149PT cells assessed as cell growth inhibition measured after 72 hrs by SRB Assay
[4] = test system: A498; assay: Antiproliferative activity against human A498 cells assessed as cell growth inhibition measured after 72 hrs by SRB Assay; conditions: A498, 72 h
[5] = target: T1, Protein cereblon/Wee1-like protein kinase (Homo sapiens, UniProt P30291+Q96SW2); assay: PROTAC activity at CRBN/Wee1 in human MV4-11 cells assessed as residual Wee1 level at IC50 measured after 6 hrs by Western blot analysis (reference value: 100%); format: cell-based
T1 sequence (P30291 whole entry, looked up): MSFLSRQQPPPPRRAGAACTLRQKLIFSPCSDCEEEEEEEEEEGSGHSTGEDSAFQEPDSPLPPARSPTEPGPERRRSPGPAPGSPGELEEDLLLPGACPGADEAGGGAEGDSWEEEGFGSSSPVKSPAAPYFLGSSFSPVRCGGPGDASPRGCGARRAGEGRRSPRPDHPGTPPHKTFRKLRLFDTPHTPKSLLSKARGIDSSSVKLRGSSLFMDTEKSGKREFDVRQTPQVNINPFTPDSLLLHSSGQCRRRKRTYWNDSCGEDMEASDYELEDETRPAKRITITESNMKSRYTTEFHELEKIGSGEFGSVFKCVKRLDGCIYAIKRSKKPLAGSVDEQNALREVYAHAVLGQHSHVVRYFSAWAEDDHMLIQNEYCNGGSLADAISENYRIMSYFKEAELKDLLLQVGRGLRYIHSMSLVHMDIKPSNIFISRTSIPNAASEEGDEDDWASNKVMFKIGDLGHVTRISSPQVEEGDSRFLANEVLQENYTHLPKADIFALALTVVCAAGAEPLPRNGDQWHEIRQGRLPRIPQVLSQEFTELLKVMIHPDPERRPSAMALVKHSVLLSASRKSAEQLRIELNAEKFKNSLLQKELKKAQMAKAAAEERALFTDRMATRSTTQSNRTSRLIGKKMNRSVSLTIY
T1 sequence (Q96SW2 whole entry, looked up): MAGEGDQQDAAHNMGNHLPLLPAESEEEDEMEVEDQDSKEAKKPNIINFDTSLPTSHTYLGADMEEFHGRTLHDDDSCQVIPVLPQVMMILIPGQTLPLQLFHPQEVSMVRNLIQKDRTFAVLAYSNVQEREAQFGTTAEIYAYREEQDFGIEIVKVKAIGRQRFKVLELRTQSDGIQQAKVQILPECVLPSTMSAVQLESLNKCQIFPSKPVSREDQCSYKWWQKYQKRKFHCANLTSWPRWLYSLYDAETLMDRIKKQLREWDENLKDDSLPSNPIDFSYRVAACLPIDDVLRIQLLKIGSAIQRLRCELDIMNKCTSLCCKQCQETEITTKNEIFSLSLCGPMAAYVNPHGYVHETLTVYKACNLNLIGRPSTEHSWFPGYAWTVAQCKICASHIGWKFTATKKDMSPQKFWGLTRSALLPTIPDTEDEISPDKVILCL

[6] = test system: MV4-11; assay: Effect on PLK1 expression in human MV4-11 cells at IC50 measured after 6 hrs by Western blot analysis; format: functional, cell-based
[7] = target: Wee1-like protein kinase (Homo sapiens) (UniProt P30291); assay: Inhibition of Wee1 in human MV4-11 cells at IC50 measured after 6 hrs by Western blot analysis relative to control; format: cell-based
Wee1-like protein kinase (Homo sapiens), sequence (P30291 whole entry, looked up): as the sequence (P30291 whole entry, looked up) above

[8] = Effect on Wee1 level in human MV4-11 cells assessed as residual Wee1 level at 6.25 nM measured after 6 hrs by Immunoblotting method (reference value: 100%); format: functional
[9] = Effect on Wee1 level in human MV4-11 cells assessed as residual Wee1 level at 12.5 nM measured after 6 hrs by Immunoblotting method (reference value: 100%); format: functional
[10] = Effect on Wee1 level in human MV4-11 cells assessed as Wee1 level at 25 nM measured after 6 hrs by Immunoblotting method relative to control (reference value: 100%); format: functional
[11] = Effect on Wee1 level in human MV4-11 cells assessed as Wee1 level at 50 nM measured after 6 hrs by Immunoblotting method relative to control (reference value: 100%); format: functional
[12] = Effect on Wee1 level in human MV4-11 cells assessed as Wee1 level at 100 nM measured after 6 hrs by Immunoblotting method relative to control (reference value: 100%); format: functional
[13] = Half life in ICR mouse at 20 mg/kg, po measured upto 360 mins; format: ADME, organism-based; conditions: in vivo
[14] = Tmax in ICR mouse at 20 mg/kg, po measured upto 360 mins; format: ADME, organism-based; conditions: in vivo
[15] = Cmax in ICR mouse at 20 mg/kg, po measured upto 360 mins; format: ADME, organism-based; design: time < 360 min, dose 20 mg/kg, route po; conditions: in vivo
[16] = AUClast in ICR mouse at 20 mg/kg, po measured upto 360 mins; format: ADME, organism-based; design: time < 360 min, dose 20 mg/kg, route po; conditions: in vivo
[17] = Observed AUCinfinity ICR mouse at 20 mg/kg, po measured upto 360 mins; format: ADME, organism-based; design: time < 360 min, dose 20 mg/kg, route po; conditions: in vivo
[18] = Observed MRTinfinity ICR mouse at 20 mg/kg, po measured upto 360 mins; format: ADME, organism-based; conditions: in vivo
[19] = target: T1, Protein cereblon/Wee1-like protein kinase; assay: PROTAC activity at CRBN/Wee1 in human MV4-11 cells assessed as reduction in Wee1 level measured after 72 hrs by Western blot analysis; format: cell-based

Serine/threonine-protein kinase PLK1, sequence (P53350 whole entry): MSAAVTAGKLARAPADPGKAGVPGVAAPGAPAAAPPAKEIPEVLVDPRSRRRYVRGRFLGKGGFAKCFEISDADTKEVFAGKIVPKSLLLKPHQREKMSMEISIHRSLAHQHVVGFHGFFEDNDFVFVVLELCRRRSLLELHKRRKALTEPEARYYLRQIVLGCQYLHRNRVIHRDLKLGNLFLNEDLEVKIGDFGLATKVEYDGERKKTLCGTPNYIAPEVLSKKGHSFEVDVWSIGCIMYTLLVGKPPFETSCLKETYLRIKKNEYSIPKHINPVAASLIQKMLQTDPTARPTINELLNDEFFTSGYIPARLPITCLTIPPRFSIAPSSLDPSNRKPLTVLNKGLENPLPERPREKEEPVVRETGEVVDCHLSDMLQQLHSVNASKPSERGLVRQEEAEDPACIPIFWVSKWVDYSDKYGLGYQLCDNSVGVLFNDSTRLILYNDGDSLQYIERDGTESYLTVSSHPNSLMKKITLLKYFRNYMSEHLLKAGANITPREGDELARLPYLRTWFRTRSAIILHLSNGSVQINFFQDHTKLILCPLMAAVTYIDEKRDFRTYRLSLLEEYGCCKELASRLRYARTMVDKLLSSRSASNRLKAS

Structure (SMILES)	IC50 [2] [nM]	IC50 [3] [nM]	IC50 [4] [nM]	Activity [5] [%]	Activity [6]	further results
C=CCn1c(=O)c2cnc(Nc3ccc(N4CCN(CC(=O)NCCOCCOCCNc5cccc6c5C(=O)N(C5CCC(=O)NC5=O)C6=O)CC4)cc3)nc2n1-c1cccc(C(C)(C)O)n1 (configuration not stated)	1000	6040	> 10000	21	inactive	IC50 [1]: > 10000 nM
C=CCn1c(=O)c2cnc(Nc3ccc(N4CCN(CC(=O)NCCCCNc5cccc6c5C(=O)N(C5CCC(=O)NC5=O)C6=O)CC4)cc3)nc2n1-c1cccc(C(C)(C)O)n1 (configuration not stated)	226	1590	5380	21	inactive	–
C=CCn1c(=O)c2cnc(Nc3ccc(N4CCN(CC(=O)NCCCCCCNc5cccc6c5C(=O)N(C5CCC(=O)NC5=O)C6=O)CC4)cc3)nc2n1-c1cccc(C(C)(C)O)n1 (configuration not stated)	1110	2810	6650	49	inactive	–
C=CCn1c(=O)c2cnc(Nc3ccc(N4CCN(CC(=O)NCCCCCNc5cccc6c5C(=O)N(C5CCC(=O)NC5=O)C6=O)CC4)cc3)nc2n1-c1cccc(C(C)(C)O)n1 (configuration not stated)	809	2130	6870	32	inactive	–
C=CCn1c(=O)c2cnc(Nc3ccc(N4CCN(C)CC4)cc3)nc2n1-c1cccc(C(C)(C)O)n1 [ADAVOSERTIB]	133	536	216	–	inactive	IC50 [1]: 268 nM; inhibition [7]: 94%; Activity [8]: 90%; Activity [9]: 98%; Activity [10]: 90%; Activity [11]: 70%; Activity [12]: 120%; half-life [13]: 7.15 h; Tmax [14]: 0.25 h; Cmax [15]: 681 ng/mL; AUC(0-t) at 6 h [16]: 915 ng·h/mL; AUC(0-inf) [17]: 934 ng·h/mL; MRT inf [18]: 2.84 h; Activity [19]: inactive
C=CCn1c(=O)c2cnc(Nc3ccc(N4CCN(CC(=O)NCCCCC(=O)NCc5ccc(COc6cccc7c6C(=O)N(C6CCC(=O)NC6=O)C7=O)cc5)CC4)cc3)nc2n1-c1cccc(C(C)(C)O)n1 (configuration not stated)	7000	> 10000	> 10000	45	inactive	–
C=CCn1c(=O)c2cnc(Nc3ccc(N4CCN(CC(=O)NCCCCC(=O)NCCNc5cccc6c5C(=O)N(C5CCC(=O)NC5=O)C6=O)CC4)cc3)nc2n1-c1cccc(C(C)(C)O)n1 (configuration not stated)	2000	> 10000	> 10000	22	inactive	–
C=CCn1c(=O)c2cnc(Nc3ccc(N4CCN(CC(=O)NCCCCC(=O)NCc5ccc(CNc6cccc7c6C(=O)N(C6CCC(=O)NC6=O)C7=O)cc5)CC4)cc3)nc2n1-c1cccc(C(C)(C)O)n1 (configuration not stated)	6000	> 10000	> 10000	27	inactive	IC50 [1]: > 10000 nM
C=CCn1c(=O)c2cnc(Nc3ccc(N4CCN(CC(=O)NCCOCCOCCOCCOCCOCCNc5cccc6c5C(=O)N(C5CCC(=O)NC5=O)C6=O)CC4)cc3)nc2n1-c1cccc(C(C)(C)O)n1 (configuration not stated)	2150	> 10000	10000	26	inactive	IC50 [1]: > 10000 nM
C=CCn1c(=O)c2cnc(Nc3ccc(N4CCN(CC(=O)NCCOCCOCCOCCNc5cccc6c5C(=O)N(C5CCC(=O)NC5=O)C6=O)CC4)cc3)nc2n1-c1cccc(C(C)(C)O)n1 (configuration not stated)	2200	> 10000	> 10000	37	inactive	–
C=CCn1c(=O)c2cnc(Nc3ccc(N4CCN(CC(=O)NCCOCCOCCOCCOCCNc5cccc6c5C(=O)N(C5CCC(=O)NC5=O)C6=O)CC4)cc3)nc2n1-c1cccc(C(C)(C)O)n1 (configuration not stated)	408	3140	5830	49	inactive	–
C=CCn1c(=O)c2cnc(Nc3ccc(N4CCN(CC(=O)NCCOCCOCCOCCOCCOCCOCCOCCNc5cccc6c5C(=O)N(C5CCC(=O)NC5=O)C6=O)CC4)cc3)nc2n1-c1cccc(C(C)(C)O)n1 (configuration not stated)	716	> 10000	> 10000	21	inactive	IC50 [1]: > 10000 nM
C=CCn1c(=O)c2cnc(Nc3ccc(N4CCN(CC(=O)NCCCCC(=O)NCCOc5cccc6c5C(=O)N(C5CCC(=O)NC5=O)C6=O)CC4)cc3)nc2n1-c1cccc(C(C)(C)O)n1 (configuration not stated)	5000	> 10000	> 10000	23	inactive	–
C=CCn1c(=O)c2cnc(Nc3ccc(N4CCN(CC(=O)NCCOCCOCCOCCOCCOCCOCCNc5cccc6c5C(=O)N(C5CCC(=O)NC5=O)C6=O)CC4)cc3)nc2n1-c1cccc(C(C)(C)O)n1 (configuration not stated)	1130	> 10000	> 10000	33	inactive	–
C=CCn1c(=O)c2cnc(Nc3ccc(N4CCN(CC(=O)NCCCNc5cccc6c5C(=O)N(C5CCC(=O)NC5=O)C6=O)CC4)cc3)nc2n1-c1cccc(C(C)(C)O)n1 (configuration not stated)	215	1550	7740	37	inactive	–
C=CCn1c(=O)c2cnc(Nc3ccc(N4CCN(CC(=O)NCCOCCOCCOCCOCCOCCOCCOCCOCCNc5cccc6c5C(=O)N(C5CCC(=O)NC5=O)C6=O)CC4)cc3)nc2n1-c1cccc(C(C)(C)O)n1 (configuration not stated)	523	8850	> 10000	28	inactive	–
C=CCn1c(=O)c2cnc(Nc3ccc(N4CCN(CCCCCNc5cccc6c5C(=O)N(C5CCC(=O)NC5=O)C6=O)CC4)cc3)nc2n1-c1cccc(C(C)(C)O)n1 (configuration not stated)	182	1260	1310	24	inactive	–
